From patent US20250214942A1, “INHIBITORS OF RECEPTOR INTERACTING PROTEIN KINASE I FOR THE TREATMENT OF DISEASE” (Board of Regents, The University of Texas System, priority 2019, published 2025)

Legend:
[1] = test system: human monocytic cell line U937; assay: Human U937 cellular necroptosis assay (TNFalpha + z-VAD-FMK, Cell Titer-Glo viability); assay type: cell-based; settings: Homo sapiens, U-937, 22 h, U937 cells, 25 ng/mL human TNFalpha + 25 μM z-VAD-FMK, read-out: hU937 Avg IC50
In short: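 Cells resuspended in phenol red-free RPMI with 10% FBS, stimulated with 25 ng/mL human TNFalpha plus 25 μM z-VAD-FMK, then given serially diluted compound for 22 h at 37° C, 5% CO2. Viability by Cell Titer-Glo 2.0 luminescence; IC50 from four-parameter logistic fit, averaged across runs.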

[2] = biological target: RIPK1 (Homo sapiens (Human), UniProt Q13546); assay: ADP-Glo kinase assay (RIPK1 activity, conversion of ATP to ADP); assay type: biochemical; settings: 5 nM RIPK1, 50 μM ATP, 6 h reaction; read-out: RIPK1 Enzyme Avg IC50
In short: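 ADP-Glo luminescence of ATP-to-ADP conversion by 5 nM RIPK1 with 50 μM ATP (final), 6 h reaction after 10 min compound preincubation at rt. Buffer was 50 mM HEPES pH 7.5, 30 mM MgCl2, 0.05% BSA, 0.02% CHAPS. IC50 from four-parameter logistic fit.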

Sequence of RIPK1 (Q13546 1-327): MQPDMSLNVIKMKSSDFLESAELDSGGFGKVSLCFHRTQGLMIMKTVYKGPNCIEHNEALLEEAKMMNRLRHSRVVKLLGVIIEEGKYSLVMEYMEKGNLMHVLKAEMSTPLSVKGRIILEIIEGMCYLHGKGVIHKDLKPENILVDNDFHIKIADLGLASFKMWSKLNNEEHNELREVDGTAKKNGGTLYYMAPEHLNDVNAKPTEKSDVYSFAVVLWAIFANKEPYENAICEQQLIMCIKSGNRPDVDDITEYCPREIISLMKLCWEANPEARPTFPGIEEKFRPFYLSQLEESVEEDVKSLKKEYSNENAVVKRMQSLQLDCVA

Row | IC50 [2] [nM] | SMILES | IC50 [1] [nM]
1 | 57 | COc1ccn(CC23CC(C(=O)N4N=CCC4c4cc(F)cc(F)c4)(C2)C3)n1 (centres unmarked) [Example 164, (5-(3,5-difluorophenyl)-4,5-dihydro-1H-pyrazol-1-yl)(3-((3-methoxy-1H-pyrazol-1-yl)methyl)bicyclo[1.1.1]-pentan-1-yl)methanone] | 214
2 | 13 | O=C(N1N=CCC1c1cc(F)cc(F)c1)C12CC(COc3ccc(Br)cc3F)(C1)C2 (centres unmarked) [Example 331, (3-((4-bromo-2-fluoro-phenoxy)methyl)bicyclo-[1.1.1]pentan-1-yl)(5-(3,5-difluorophenyl)-4,5-dihydro-1H-pyrazol-1-yl)methanone] | 28
3 | 9.1 | N#Cc1cncc(C2CC=NN2C(=O)C23CC(Cn4ncc5cc(C#N)ccc54)(C2)C3)c1 (centres unmarked) [Example 173, 1-((3-(5-(5-cyanopyridin-3-yl)-4,5-dihydro-1H-pyrazole-1-carbonyl)bicyclo[1.1.1]-pentan-1-yl)methyl)-1H-indazole-5-carbonitrile] | 53
4 | 22 | O=C(N1N=CCC1c1cc(F)ccc1F)C12CC(Cn3ncc4c(F)cccc43)(C1)C2 (centres unmarked) [Example 84, (5-(2,5-difluorophenyl)-4,5-dihydro-1H-pyrazol-1-yl)(3-((4-fluoro-1H-indazol-1-yl)-methyl)bicyclo[1.1.1]pentan-1-yl)methanone] | 3
